Measured values as given in patent publication US12257050B2, “Calibration free in-vivo measurement of analytes using electrochemical sensors” (THE REGENTS OF THE UNIVERSITY OF CALIFORNIA, priority 2017, dated 2025).

Settings: rat, in vivo, iv, 30 mg/kg
Excerpt: The drift-resistance of chronoamperometrically-interrogated E-AB sensors is sufficient to support continuous, real-time measurements directly in situ in the blood of live animals. Aminoglycoside-binding E-AB were fabricated sensors on 75 μm-diameter gold micro-wires, encased in 22-gauge catheters for structural support, and deployed directly in the jugular veins of live rats (FIG. 6A). The plasma pharmacokinetics of the antibiotic tobramycin were monitored following an intravenous administration of 30 mg/kg by performing continuous chronoamperometric measurements for a total of two hours (FIG. 6B). Continuous measurements were achieved by pulsing the potential of the E-AB sensors serially between −0.1 V and −0.3 V, holding each pulse with a duration of only 100 ms. Then, non-linear regression analysis was performed of the current transients generated at −0.3 V to extract current decay lifetimes in real time, and these lifetimes were converted to concentration using the previously determined Langmuir isotherm (FIG. 6C). […]
The sub-second time resolution of chronoamperometrically interrogated E-AB sensors measurement of drug pharmacokinetics with unprecedented precision. The distribution, α, and elimination, β, lifetimes of tobramycin were determined by fitting the in vivo data to a two-compartment pharmacokinetic model. […]

- distribution lifetime α (first-order time constant of drug distribution): 3.74 ± 0.04 min
- elimination lifetime β (elimination time constant): 69 ± 2 min
SMILES: NC[C@H]1O[C@H](O[C@H]2[C@H](O)[C@@H](O[C@H]3O[C@H](CO)[C@@H](O)[C@H](N)[C@H]3O)[C@H](N)C[C@@H]2N)[C@H](N)C[C@@H]1O [tobramycin]
